Laboratory results reported in patent US10138207B2, “Benzomorphan analogs and the use thereof” (priority 2012, dated 2018).
Where two headings read alike, the source gives them in different places.

Key:
μ-opioid receptor [1] = molecular target: T1, μ-opioid receptor (Homo sapiens, UniProt P35372); experiment: μ-opioid receptor [35S]GTPγS functional assay, U-2 OS cells; type: biochemical; set-up: expressed in transfected cells; host or cells: U-2 OS
κ opioid receptor = κ opioid receptor (Homo sapiens, UniProt P41145); experiment: κ-opioid receptor [35S]GTPγS functional assay, U-2 OS cells; type: biochemical; set-up: expressed in transfected cells; host or cells: U-2 OS (in-house membranes); conditions: for Emax: read-out: GTPγS κ Emax
κ opioid receptor, sequence (P41145 whole entry): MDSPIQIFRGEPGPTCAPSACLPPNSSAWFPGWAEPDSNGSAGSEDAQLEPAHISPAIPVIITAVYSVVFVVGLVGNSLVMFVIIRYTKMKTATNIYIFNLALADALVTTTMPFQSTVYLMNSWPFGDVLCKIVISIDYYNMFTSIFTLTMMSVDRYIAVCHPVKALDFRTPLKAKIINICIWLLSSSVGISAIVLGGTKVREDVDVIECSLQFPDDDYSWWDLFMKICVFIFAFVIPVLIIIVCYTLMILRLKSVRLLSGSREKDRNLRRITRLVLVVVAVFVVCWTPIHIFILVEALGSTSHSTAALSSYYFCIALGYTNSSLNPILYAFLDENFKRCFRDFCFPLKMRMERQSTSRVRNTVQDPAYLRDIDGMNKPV

μ-opioid receptor [2] = molecular target: T1, μ-opioid receptor; experiment: μ-opioid receptor [35S]GTPγS functional assay, HEK-293 or CHO cells
[3] = U-2 OS cells, read-out: GTPγS μ EC50
[4] = U-2 OS cells, relative to DAMGO, read-out: GTPγS μ Emax
[5] = U-2 OS cells, read-out: GTPγS κ EC50
[6] = U-2 OS cells, relative to U69,593

T1 sequence (P35372 whole entry, species assumed): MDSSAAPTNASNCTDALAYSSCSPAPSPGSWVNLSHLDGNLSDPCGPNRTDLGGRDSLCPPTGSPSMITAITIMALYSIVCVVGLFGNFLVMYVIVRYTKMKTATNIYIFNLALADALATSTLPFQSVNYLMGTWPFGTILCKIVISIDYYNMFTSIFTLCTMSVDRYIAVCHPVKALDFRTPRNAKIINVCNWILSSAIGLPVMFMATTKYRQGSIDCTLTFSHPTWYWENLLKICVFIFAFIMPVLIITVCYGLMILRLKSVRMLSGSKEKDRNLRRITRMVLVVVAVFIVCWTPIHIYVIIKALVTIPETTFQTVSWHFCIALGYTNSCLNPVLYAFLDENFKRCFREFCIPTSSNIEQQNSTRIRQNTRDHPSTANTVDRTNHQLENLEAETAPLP

Question: For `CN(C(=O)Nc1ccc(C(C)(C)C)cc1)[C@@H]1[C@H]2Cc3ccc(O)cc3[C@]1(C)CCN2CC1CC1` [Compound 133, 3-(4-(tert-butyl)phenyl)-1-((2R,6S,11S)-3-(cyclopropylmethyl)-8-hydroxy-6-methyl-1,2,3,4,5,6-hexahydro-2,6-methanobenzo[d]azocin-11-yl)-1-methylurea], which EC50 (μ-opioid receptor [1]; [3]) is on record?
Answer: The EC50 was 0.0039 ± 0.00074 µM.

Question: And the Emax (μ-opioid receptor [1]; [4])?
Answer: The Emax was 22.3 ± 1.2%.

Question: And the EC50 (κ opioid receptor; [5])?
Answer: Its EC50 is 0.0217 ± 0.00316 µM.

Question: And the Emax (κ opioid receptor; [6])?
Answer: The Emax was 42 ± 4.02%.

Question: How did the EC50 (μ-opioid receptor [1]; [3]) turn out when `CCC[C@@]12CCN(C)C(Cc3ccc(OC)cc31)[C@@H]2N(C)C(=O)Nc1ccc(C#N)cc1` [Compound 136, 3-(4-cyanophenyl)-1-((6R,11R)-8-methoxy-3-methyl-6-propyl-1,2,3,4,5,6-hexahydro-2,6-methanobenzo[d]azocin-11-yl)-1-methylurea] was run?
Answer: The EC50 was 2.33 ± 0.236 µM.

Question: What about the Emax (μ-opioid receptor [1]; [4]) of the same compound?
Answer: Its Emax is 62.3 ± 3.84%.

Question: And the EC50 (κ opioid receptor; [5])?
Answer: The EC50 was 3.83 ± 0.541 µM.

Question: And the Emax (κ opioid receptor; [6])?
Answer: Its Emax is 22.3 ± 3.71%.

Question: What does the source list for `CN1CC[C@@]2(C)c3cc(O)ccc3C[C@@H]1[C@H]2N(C)C(=O)c1ccc(C(F)(F)F)cn1` [Compound 126, N-((2R,6S,11S)-8-hydroxy-3,6-dimethyl-1,2,3,4,5,6-hexahydro-2,6-methanobenzo[d]azocin-11-yl)-N-methyl-5-(trifluoromethyl)picolinamide]?
Answer: EC50 (μ-opioid receptor [1]; [3]): 0.147 ± 0.00947 µM; Emax (μ-opioid receptor [1]; [4]): 103 ± 2.4%; EC50 (κ opioid receptor; [5]): 1.47 ± 0.0913 µM; Emax (κ opioid receptor; [6]): 63.7 ± 3.93%

Question: `CN1CC[C@@]2(C)c3cc(O)ccc3C[C@@H]1[C@@H]2N(C)C(=O)c1ccccc1` [Compound 119, N-((2R,6S,11R)-8-hydroxy-3,6-dimethyl-1,2,3,4,5,6-hexahydro-2,6-methanobenzo[d]azocin-11-yl)-N-methylbenzamide] was tested. Which EC50 (μ-opioid receptor [1]; [3]) did it give?
Answer: The EC50 was 0.0322 ± 0.00326 µM.

Question: And the Emax (μ-opioid receptor [1]; [4])?
Answer: The Emax was 100 ± 2.73%.

Question: And the EC50 (κ opioid receptor; [5])?
Answer: The EC50 was 0.383 ± 0.0219 µM.

Question: What about the Emax (κ opioid receptor; [6]) of the same compound?
Answer: The Emax was 96.7 ± 5.36%.

Question: Which results are given for `CN1CC[C@@]2(C)c3cc(O)ccc3C[C@@H]1[C@H]2NCC1CCN(C(=O)OC(C)(C)C)CC1` [Compound 106, tert-butyl 4-((((2R,6S,11S)-8-hydroxy-3,6-dimethyl-1,2,3,4,5,6-hexahydro-2,6-methanobenzo[d]azocin-11-yl)amino)methyl)piperidine-1-carboxylate]?
Answer: EC50 (μ-opioid receptor [1]; GTPγS μ EC50, U-2 OS cells, bound in μM): > 20 µM; Emax (μ-opioid receptor [1]; read-out: GTPγS μ Emax, U-2 OS cells, relative to DAMGO): 2.5%; EC50 (κ opioid receptor): > 20 µM; Emax (κ opioid receptor): 1%

Question: With `CN1CC[C@@]2(C)c3cc(O)ccc3C[C@@H]1[C@@H]2N(C)C(=O)Nc1nc2cc(F)ccc2s1` [Compound 140, 3-(5-fluorobenzo[d]thiazol-2-yl)-1-((2R,6S,11R)-8-hydroxy-3,6-dimethyl-1,2,3,4,5,6-hexahydro-2,6-methanobenzo[d]azocin-11-yl)-1-methylurea] as the compound, how does the EC50 (μ-opioid receptor [1]; [3]) read?
Answer: Its EC50 is 0.0001 ± 1e-05 µM.

Question: What about the Emax (μ-opioid receptor [1]; [4]) of the same compound?
Answer: Its Emax is 82 ± 0.91%.

Question: What about the EC50 (κ opioid receptor; [5]) of the same compound?
Answer: The EC50 was 0.00468 ± 0.0004 µM.

Question: What about the Emax (κ opioid receptor; [6]) of the same compound?
Answer: Its Emax is 107 ± 4.4%.

Question: Which results are given for `CN1CC[C@@]2(C)c3cc(O)ccc3C[C@@H]1[C@H]2NCCCNC(=O)OC(C)(C)C` [Compound 111, tert-butyl (3-(((2R,6S,11S)-8-hydroxy-3,6-dimethyl-1,2,3,4,5,6-hexahydro-2,6-methanobenzo[d]azocin-11-yl)amino)propyl)carbamate]?
Answer: EC50 (μ-opioid receptor [1]; [3]): 0.00223 ± 0.00012 µM; Emax (μ-opioid receptor [1]; [4]): 64 ± 4%; EC50 (κ opioid receptor; [5]): 0.0426 ± 0.00764 µM; Emax (κ opioid receptor; [6]): 22.7 ± 2.33%

Question: What does the source list for `CN1CC[C@@]2(C)c3cc(O)ccc3C[C@@H]1[C@@H]2NCC1CCN(C(=O)OC(C)(C)C)CC1` [Compound 107, tert-butyl 4-((((2R,6S,11R)-8-hydroxy-3,6-dimethyl-1,2,3,4,5,6-hexahydro-2,6-methanobenzo[d]azocin-11-yl)amino)methyl)piperidine-1-carboxylate]?
Answer: EC50 (μ-opioid receptor [1]; [3]): 0.0462 ± 0.00035 µM; GTPγS μ Emax (μ-opioid receptor [1]; U-2 OS cells, relative to DAMGO): 58.30 ± 0.33%; EC50 (κ opioid receptor; U-2 OS cells, bound in μM, read-out: GTPγS κ EC50): > 20 µM; Emax (κ opioid receptor; [6]): 1%

Question: Which results are given for `COc1ccc2c(c1)[C@@]1(C)CCN(C)C(C2)C1N1CCC(N)CC1` (stereo partly drawn) [Compound 70, 1-((6R)-8-methoxy-3,6-dimethyl-1,2,3,4,5,6-hexahydro-2,6-methanobenzo[d]azocin-11-yl)piperidin-4-amine]?
Answer: EC50 (μ-opioid receptor [2]): 9380 ± 501 nM; Emax (μ-opioid receptor [2]; read-out: GTPγS μ Emax): 24.7 ± 0.88%
